Values after ≈ are worked out from the molar mass of the structure shown. Where two headings read alike, the source gives them in different places.
What was measured:
[1] = system: E. coli BW25113 ΔtolC pDualrep2 reporter strain; test: pDualrep2 double fluorescent reporter assay on agar plate; format: cell-based; conditions: compound spotted on agar lawn, overnight 37 °C
Description: Next, we tested the effects of CAM-C10-TPP and CAM-C14-TPP in bacterial cells using an E. coli ∆tolC-based reporter system, which is designed to screen inhibitors targeting either protein synthesis or DNA replication. In this reporter system, the gene of the far-red fluorescent protein, katushka2S, is inserted downstream of the genetically modified tryptophan attenuator, making it possible to express Katushka2S only upon exposure to ribosome-stalling compounds (Figure 2B, CHL and ERY, red pseudocolor rings).
Reporter strain […] [71] ΔtolC (BW25113) pDualrep2 was used, as previously described. The tested antibiotics, CAM-C10-TPP (10 mM, 1.5 μL), CAM-C14-TPP (10 mM, 1.5 μL), C10-TPP (10 mM, 1.5 μL), C14-TPP (10 mM, 1.5 μL), CAM (10 mM, 1.5 μL), CAM-Ac (10 mM, 1.5 μL), chloramphenicol (CHL, 2 mM, 1 μL), erythromycin (Ery, 7 mM, 1 μL), and levofloxacin (Lev, 70 nM, 1 μL), were applied to an agar plate that already contained a lawn of the reporter strain. After being incubated overnight at 37 °C, the plate was scanned by ChemiDoc (Bio-Rad) in the modes, “Cy3-blot” for RFP and “Cy5-blot” for Katushka2S.

[2] = system: E. coli S30 extract cell-free transcription-translation system; test: inhibition of firefly luciferase synthesis in cell-free bacterial translation system; format: biochemical; conditions: 30 µM compound
Procedure: The next step was to test the new CAM-Cn-TPP compounds for their ability to inhibit the synthesis of the firefly luciferase reporter in vitro in a cell-free transcription-translation system based on an E. coli S30 extract.
The inhibition of firefly luciferase synthesis in cell-free translation systems by CAM-Cn-TPP was tested with an E. coli S30 Extract System for Linear Templates (Promega, Madison, […], USA). The reactions were programmed with 100 ng of mRNA and were carried out in 5 μL aliquots at 37 °C for 30 min. The activity of in vitro synthesized luciferase was assessed using 5 μL of the substrate from the Steady-Glo Luciferase Assay System (Promega).

[3] = system: ribosome stalling on trpL mRNA in a cell-free translation system; test: toeprinting (primer extension inhibition) assay on trpL mRNA; format: biochemical; conditions: trpL mRNA template, 30 μM compound
Description: To investigate the mechanism of action of CAM-C10-TPP and CAM-C14-TPP in the translation process, a primer extension inhibition assay (toeprinting) was used. This method allows for the unambiguous identification of drug-induced ribosome stalling sites along the mRNA, with single-nucleotide precision. This technique is also used to determine the context-specificity of antibiotic action. For this experiment, trpL mRNAs were chosen as the template, as in the pDualrep2 reporter system. […] Compared to the results obtained previously for CAM-C4-TPP using rst1 and rst2 mRNA templates, more unambiguous results were obtained using a trpL mRNA template. The main drug-induced ribosome stalling sites are different for CHL and CAM-Cn-TPP, and there are also CAM-Cn-TPP-specific stalling positions.
The toeprinting assay was carried out using trpL mRNA as a template, as described in [73], and the reactions were preincubated for 5 min with 30 μM of the tested compound.

[4] = system: Bacillus subtilis; test: MIC determination, broth microdilution; format: cell-based
Description: (§1) Standard laboratory strains of Bacillus subtilis subs. subtilis Cohn 1872, stains BR151, and 168, Staphylococcus aureus subsp. aureus Rosenbach 1884 strains JCM 2151 and entry MC#144 (from the Microorganisms Collection of the Moscow State University), Listeria monocytogenes Pirie 1940, Mycobacterium smegmatis Lehmann and Neumann 1899 (MC#377), and Escherichia coli Castellani and Chalmers 1919, strain JW5503 (with the deletion of tolC gene), which are resistant to the chloramphenicol strains, J53rif, C600rif/pIB55-1, C600rif/pIP162-1, and C600recA naI, were used.
(§2) The MICs for CAM-Cn-TPP and Cn-TPP were determined by Mueller-Hinton broth microdilution, as recommended by CLSI in the Methods for Dilution Antimicrobial Susceptibility Tests for Bacteria that Grow Aerobically, Approved Standard, 9th ed., CLSI document M07-A9, using in-house-prepared panels. The compounds were diluted in a 96-well microtiter plate to final concentrations ranging from 0.5 to 360 μM in a 250-µL aliquot of the bacterial suspension, followed by incubation at 37 °C or 30 °C for 18 h. […] The bacterial growth was observed visually alongside OD measurements. The experiments were carried out in triplicate.

[5] = system: Mycobacterium smegmatis; test: MIC determination, broth microdilution; format: cell-based; conditions: Mycolicibacterium smegmatis
Description: as §1, §2

[6] = system: E. coli ∆tolC-CAT; test: MIC determination, broth microdilution; format: cell-based; conditions: Escherichia coli
Procedure: (§3) E. coli ∆tolC CHL-resistant strain harboring plasmid encoding for chloramphenicol acetyltransferase (cat) (pCA24N-LacZ) and the control E. coli ∆tolC strain was used to evaluate the inhibitory effect of the compounds. CHL-resistant strains of B. subtilis pHT01-cat and B. subtilis pHT01-cfr were prepared by means of a transformation of a B. subtilis 168 strain with plasmids harboring the cat and cfr genes (chloramphenicol-florfenicol resistance) gene. The cfr gene encodes for the methyltransferase, which catalyzes the methylation of […] in the 23S rRNA and causes resistance to a variety of ribosome-targeting antibiotics that bind in the A site of the bacterial ribosome.
(§4) A standard laboratory strain of E. coli JW5503, with the deletion of the tolC gene, referred to here as the ∆tolC strain, was used to obtain the ∆tolC pCA24N-LacZ strain by means of transformation with the plasmid pCA24N-LacZ-harboring chloramphenicol acetyltransferase (cat) gene.
as §2

[7] = system: E. coli ∆tolC; test: MIC determination, broth microdilution; format: cell-based; conditions: Escherichia coli
Procedure: as §3, §4, §2

[8] = Table 1, double-dilution method, read-out: MIC

## O=C(CCCCCCCCCC[P+](c1ccccc1)(c1ccccc1)c1ccccc1)N[C@H](CO)[C@H](O)c1ccc([N+](=O)[O-])cc1 [CAM-C10-TPP, (N-{[(1R,2R)-1,3-dihydroxy-1-(4-nitrophenyl)propan-2-yl]amino}-11-oxoundecyl)(triphenyl)phosphonium bromide]
[1]
  induction of reporters (Katushka2S: ribosome stalling; RFP: DNA damage): red pseudocolor rings are observed due to the expression of the fluorescent protein, Katushka2S (but not RFP)
[2]
  inhibition of bacterial translation (luciferase synthesis): inhibits bacterial translation
[3]
  drug-induced ribosome stalling site: blocked the ribosome progression at Val6 (Figure 2D, red arrowhead) and slightly blocked it at Ile4
[4]
  MIC: 2 µM
[5]
  MIC: 2 µM
[6]
  MIC: 25 µM
[7]
  MIC: 3 µM

## O=C(CCCCCCCCCC[P+](c1ccccc1)(c1ccccc1)c1ccccc1)NCCCC(=O)N[C@H](CO)[C@H](O)c1ccc([N+](=O)[O-])cc1 [CAM-C14-TPP, N-[(1R,2R)-1,3-dihydroxy-1-(4-nitrophenyl)propan-2-yl]-4-(triphenyl)phosphoniumundecanamidobutamide bromide]
[1]
  induction of reporters (Katushka2S: ribosome stalling; RFP: DNA damage): red pseudocolor rings are observed due to the expression of the fluorescent protein, Katushka2S (but not RFP)
[2]
  inhibition of bacterial translation (luciferase synthesis): inhibits bacterial translation
[3]
  drug-induced ribosome stalling site: blocked the ribosome progression at Val6 (Figure 2D, red arrowhead) and slightly blocked it at Ile4
[4]
  MIC: 12 µM
[5]
  MIC: 8 µM
[6]
  MIC: 12.5 µM
[7]
  MIC: 12.5 µM

## O=C(N[C@H](CO)[C@H](O)c1ccc([N+](=O)[O-])cc1)C(Cl)Cl [CHL, chloramphenicol]
[1]
  induction of reporters (Katushka2S: ribosome stalling; RFP: DNA damage): red pseudocolor rings are observed due to the expression of the fluorescent protein, Katushka2S (but not RFP)
[2]
  inhibition of bacterial translation (luciferase synthesis): inhibits bacterial translation
[3]
  drug-induced ribosome stalling site: stalls ribosomes at the Ile4 codon
[4]; [8]
  MIC: 12 µM (≈ 3.88 µg/mL)
[5]; [8]
  MIC: 6 µM (≈ 1.94 µg/mL)
[6]
  MIC: > 360 µM
[7]
  MIC: 2.8 µM (≈ 0.905 µg/mL)
